Laboratory results from patent US20240382608A1, “NOVEL LIGAND-DRUG CONJUGATE OF CAMPTOTHECIN ANALOGS, INTERMEDIATES, PHARMACEUTICAL COMPOSITION AND APPLICATION THEREOF” (SHANGHAI MICURX PHARMACEUTICAL CO., LTD., priority 2023, published 2024).
pIC50: −log10 of the molar value. Like-named read-outs stand apart in the source and are kept apart here.

What was measured:
Rat PK study = assay type: in vivo; settings: Sprague-Dawley (SD)
Description: Male SD rat, 180-200 g (BK lab. Animal Ltd.), 3 Rats/group. Blood samples were collected by orbital vein after IV administration 1 mg/kg dosage at 0.083, 0.5, 1, 2, 4, and 8 h into heparin-containing tubes, centrifugated at 10000 rpm for 3 min to get plasma. All samples were stored at −20° C. until they were sent to Suzhou Chengyao Biotech Co., Ltd. for analysis.

SK-BR-3 = assay: In vitro cytotoxicity test of camptothecin payloads (CellTiter-Glo); assay type: cell-based; settings: Homo sapiens, SK-BR-3, 72 h, read-out: SK-BR-3 Cytotoxicity IC50 (nM)
Description: (§1) Human lung adenocarcinoma cell line A549, NCI-N87, and SK-BR-3 were used to evaluate the cytotoxicity of small molecule fragment of the present invention. These cells were seeded to a 96-well plate at 2000 cells per well.

NCI-N87 = assay: as above; assay type: cell-based; settings: Homo sapiens, NCI-N87, 72 h, read-out: NCI-N87 Cytotoxicity IC50 (nM)
Description: as §1

A549 = assay: as above; assay type: cell-based; settings: Homo sapiens, A549, 72 h; for IC50: read-out: A549 Cytotoxicity IC50 (nM)
Description: as §1

[1] = male, rat, in vivo, iv, 1 mg/kg

Compound	IC50 (SK-BR-3) [nM]	IC50 (NCI-N87) [nM]	IC50 (A549) [nM]	further results
CC[C@@]1(O)C(=O)OCc2c1cc1n(c2=O)Cc2c-1nc1ccc(N)c3c1c2C=CS3 [Example 1, (S)-4-amino-9-ethyl-9-hydroxy-12,15-dihydro-13H-pyrano[3′,4′:6,7]indolizino[1,2-b]thiopyrano[4,3,2-de]quinoline-10,13(9H)-dione]	38.6	5.2	10.7	MRT inf (Rat PK study; [1]): 12 min; Vd (Rat PK study; [1]): 0.9 L/kg; half-life (Rat PK study; [1]): 18 min
CC[C@@]1(O)C(=O)OCc2c1cc1n(c2=O)Cc2c-1nc1cc(F)c(N)c3c1c2C=CS3 [Example 2, (S)-4-amino-9-ethyl-5-fluoro-9-hydroxy-12,15-dihydro-13H-pyrano[3′,4′:6,7]indolizino[1,2-b]thiopyrano[4,3,2-de]quinoline-10,13(9H)-dione]	–	–	0.8	–
CC[C@@]1(O)C(=O)OCc2c1cc1n(c2=O)Cc2c-1nc1ccc(NC(=O)CO)c3c1c2C=CS3 [Example 13]	52.3	21.7	26.4	–
CC[C@@]1(O)C(=O)OCc2c1cc1n(c2=O)Cc2c-1nc1cc(F)c(C)c3c1c2[C@@H](NC(=O)CO)CC3 [drawing 109]	802	26	163	–
CC[C@@]1(O)C(=O)OCc2c1cc1n(c2=O)Cc2c-1nc1ccc(N)c3c1c2CCS3 [drawing 110]	–	–	–	pIC50 (A549; cell viability after 3 days, 2000 cells per well, read-out: A549 Cytotoxicity IC50): 7.65
CC[C@@]1(O)C(=O)OCc2c1cc1n(c2=O)Cc2c-1nc1cc(F)c(C)c3c1c2[C@@H](NC(=O)CO)CC3 [drawing 111]	–	–	–	MRT inf (Rat PK study; in vivo, male SD rat, IV 1 mg/kg, plasma, read-out: MRT0-∞): 30 min; half-life (Rat PK study; in vivo, male SD rat, IV 1 mg/kg, plasma, read-out: T1/2 (converted)): 30 min; Vd (Rat PK study; in vivo, male SD rat, IV 1 mg/kg, plasma, read-out: Vss): 20.6 L/kg
CC[C@@]1(O)C(=O)OCc2c1cc1n(c2=O)Cc2c-1nc1ccc(N)c3c1c2CCS3 [drawing 112]	–	–	–	MRT inf (Rat PK study; male SD rat, IV 1 mg/kg, plasma, read-out: MRT0-∞): 114 min; half-life (Rat PK study; male SD rat, IV 1 mg/kg, plasma, read-out: T1/2 (converted)): 126 min; Vd (Rat PK study; male SD rat, IV 1 mg/kg, plasma, read-out: Vss): 7.2 L/kg
